From patent publication US20020049157A1, “Use of proteasome inhibitors for treating cancer, inflammation, autoimmune disease, graft rejection and septic shock” (priority 1998, published 2002) come the findings set out here.

One assay relates to Jurkat cells. Kind of assay: Respiration (O2 consumption) of Jurkat cells, oxygen electrode. It counts as cell-based. The text has this: The function of Complex I of digitonin (Dig)-permeated Jurkat cells was blocked by rotenone (Rot), and the respiration was resumed by adding succinate (Suc), which provides electrons to Complex II directly and thus bypasses Complex I. The maximal respiration was achieved by adding CCCP (carbonyl cyanide m-chlorophenylhydrazone), which uncouples the oxidation and phosphorylation. The respiration could be blocked by antimycin A (Ant), which inhibits […]. Curves 1 and 6 represent positive controls of rat kidney mitochondria. Curves 2 and 5 represent normals untreated Jurkat cells. Curves 3 and 4 represent Jurkat cells treated with lactacystin (6 μM) for 2 h and 4 h, respectively.
Complex III in the respiration chain was blocked at Complex III antimycin (Ant), and the electron flow was resumed by addiind ascorbate (Asc) and TMPD (tetramethyl-p-phenyl-enediamine).
The assay system is identical to that described in FIG. 16. Jurkat cells were treated with LAC for 4 h (curve 3). The decoupling reagent used in this experiment to achieve maximal respiration is FCCP (carbonylcyanide-p-trifluoromethoxyphenylhydrazone).
The Jurkat Cells (JC) (30×10^6/ml) or rat kidney proximal tubules mitochondria (RKM) (0.5 mg of protein/ml) were incubated in 1 ml measuring chamber at 37° C. in a respiration buffer containing 200 mM sucrose, 5 mM MgCl2, 5 mM KH2PO4, and 30 mM HEPES-Tris (pH 7.5). During respiration experiments following substrates and inhibitors were used: 0.005% Digitonine (Dig); 10 mM Succinate (Suc); 1 mM Ascorbate (Asc); 0.4 mM tetramethyl-p- phenylenediamine (TMPD); 1 μM CCCP, 1 μM FCCP; 0.1 μM Rotenone (Rot); 50 nM Antimycin A (Anti); 1 mM KCN; 100 μM Cytochrome C (Cyt C). The respiration rate of the Jurkat Cells and mitochondria was measured polarographically with a Clarke oxygen electrode (Yellow Springs Instruments, Yellow Springs, Ohio, U.S.A.) using 1 ml thermojacketed chamber. Oxygen concentration was calibrated with air-saturated buffer using Hypoxanthine—Xanthine Oxidase—Catalase system (“chemical zero”). Oxygen consumption was continuously recorded using a “MacLab/8” (Analog Digital Instruments, U.S.A.) connected to a Macintosh SE computer and the MacLab Chart v.3.3.4 software. Rates of oxygen consumption are expressed as ng-atoms of oxygen/min.

Another assay deals with IL-2. Kind of assay: IL-2 production by PBMC after PHA stimulation. It counts as cell-based, human. Particulars: 2 to 4 days after PHA; LAC 10 μM added at the beginning; data not shown. The procedure: In the four systems of T and B cell activation and proliferation studied in the first section, the growth promoting activity of IL-2 is indirectly (for stimulation by PHA, anti-CD3, and anti-CD28 plus ionomycin), or directly (for SAC plus IL-2) involved. We then investigated the role of proteasome in IL-2Rα expression and IL-2 production. […] Under the experimental condition used, the viability of the LAC-treated cell was reasonable (>80% at 40 h) as described in the previous section as LAC was added only once initially. Moreover, no consistent change of IL-2 production in LAC-treated cells was a functional indication that the cell viability was reasonable and is not of a concern in interpreting the data. The results from this section indicate that IL-2Rα upregulation but not IL-2 production is proteasome-dependent, and the suppressed IL-2Rα expression likely contributes to LAC's inhibitory effect on T cells activation and proliferation. The Proteasome Activity is Critically Required Between G0 and G1/S Boundary in T Cells

Another assay concerns p21^Cip1. Kind of assay: Immunoblotting of p21Cip1 level in T cells. It counts as cell-based, human. To be noted: PHA; LAC 10 μM added once at the beginning. The procedure: Tonsillar T cells were stimulated with PHA (2 μg/ml) for 16 h, 40 or 64 h in the absence or presence of LAC (10 μM). For the 16 h and 40 h culture, LAC was added once at 0 h. For the 64 h culture, LAC was added once at 40 h. The cell lysates were resolved in 10% SDS-PAGE, and blotted onto PVDF membranes. The membranes were hybridized with rabbit anti-p27^Kip1 antisera (FIG. 9A) or with anti-p21^Cip1 antisera (FIG. 9B) followed by ^125-protein A. The experiments were performed three times, and similar results were obtained. Representative data is shown.
In addition to the cyclin levels, the CDK activities are also controlled by several low molecular weight inhibitors. We have examined in this study the effect of the proteasome on the CDK inhibitors p27^Kip1 (Hall et al., 1995, supra) and p21^Cip1 (el-Deiry et al., 1993, Cell 75:817). […] This is in agreement with previous reports (Hengst et al., 1996, Science 271:1861; Nourse et al., 1994, Nature 372:570). […] The blockage was less obvious when assayed at 40 h, probably because the gradual loss of LAC activity during the 40 h culture. […]
Immunoblotting was employed to evaluate the levels of Cyclin E, cyclin A, p21^Cip1 and p27^Kip1. […] The cleared lysates were quantitated for protein concentrations. […] The signals on the membrane were detected by [^125I]-protein A followed by autoradiography.
On the technique in general: In western blotting, separated proteins are transferred to a membrane and probed.

For assay [1], the system named is chymotrypsin-like activity in the lysate of PBMC. The assay can be described thus: LAC-inhibitable chymotrypsin-like activity in PBMC lysates. It counts as biochemical, human. To be noted: 10 μM LAC.
Method: Human PBMC were cultured in the absence or presence of 2 μg/ml PHA or 10 nM RAPA for 16 h-70 h as indicated. The cells were then harvested, and the chymotrypsin-like activity of whole cells lysates was assayed in the absence or presence of 20 μM proteasome inhibitor LAC. The data are presented as arbitrary units of fluorescence intensity per 20 μg lysate protein. The experiments were repeated three times and a representative one is shown. Samples are in duplicate and the mean±SD is shown. (A) Total chymotrypsin-like activity in the lysate of PBMC. (B) Lactacystin-inhibitable chymotrypsin-like activity in the lysate of 70 h PBMC. […] LAC was always added to the lysates during the proteinase assay 15 min before the addition of the substrate. The solid bars represent the activity in the presence of LAC. The net proteasome activities are calculated as the total activity minus the remaining activity after the LAC addition.
PBMC were cultured with or without PHA (2 μg/ml) and RAPA (10 nM). After 16 h-70 h, the cells were harvested and sonicated in 300 μl PBS on ice for 40 sec. Twenty micrograms of protein per sample from the cleared lysates were supplemented to 100 μl with 0.1 M Tris buffer (pH 8.2). A proteasome-specific inhibitor lactacystin (Omura et al., 1991, supra; Fentenay et al., 1995, supra) was added at a final concentration of 10 nM in some samples as indicated. The samples were incubated on ice for 15 min, and fluorogenic chymotrypsin substrate sLLVY-MCA was then added at a final concentration of 10 nM. The 20S proteasome, which was prepared as previously described (Friguet et al, 1994, J. Biol. Chem. 269:21639), was used as a positive control in place of cell lysates. The samples were incubated at 37° C. for 15 min and the reaction was terminated by adding 4 μl 2.5 M HCl. The samples were then diluted to 2 ml with 0.1 M Tris pH8.2, and measured for their fluorescent intensity by a PTI fluorometer (Photo Technology International, South Brunswick, N.J.). The excitation wavelength was 380 nm, and the emission wavelength 440 mn.
In a further assay the test system is Bik. The assay can be described thus: Immunoblotting of Bik in wild type Namalwa cells. It counts as cell-based, human. To be noted: 6 h; lactacystin 6 μM, staurosporine 0.3 μM. The procedure: Jurkat cells, wild type Namalwa cells and Bcl-xL transfected Namalwa cells were treated with medium (lanes 1), staurosporine (0.3 μM, lanes 2) and lactacystin (6 μM, lanes 3) for 6 H. The proteins from the mitochondrial fraction of these cells were analyzed by immunoblotting and the amount of Bik, Bcl-xL, Bax, and Bak evaluated. The same membranes were used sequentially and probed with different antibodies against these factors. A nonspecific band recognized by a monoclonal antibody against cytochrome […] (COX) was used as control for even sample loading in the lanes.

As to `CC(=O)N[C@@H](CSC(=O)[C@]1([C@@H](O)C(C)C)NC(=O)[C@H](C)[C@@H]1O)C(=O)O` [LAC, lactacystin], the “respiration after Complex I blockage (rotenone) on adding succinate” value in the assay with Jurkat cells (LAC 6 μM for 4 h) was “could not be resumed by adding succinate”. For the same compound, in the assay on Jurkat cells (LAC for 4 h), the “O2 consumption after Complex III (ascorbate and TMPD)” value is “could not be resumed by ascorbate and TMPD”. Further, the “O2 consumption after the addition of ascorbate and TMPD” value in the assay with Jurkat cells (LAC for 4 h, FCCP as decoupling reagent) is given as “reduced augmentation of O2 consumption”. The “electron transport of the respiratory chain” value with Jurkat cells (within 4 h) is listed as “reduce the electron transport at the complex IV”. The IL-2 production result with IL-2 was “no consistent difference was found”. Besides, the “upregulation of p21Cip1 in the G1 phase” value in the assay on p21^Cip1 is on record as “strongly suppressed the upregulation”. Moreover, the “inhibition of total chymotrypsin-like activity in the lysate” value in assay [1] (70 h lysate from PHA plus RAPA-treated PBMC) worked out at 86.7%; in assay [1] (70 h lysate from PHA-treated PBMC) it was 76.7%; in assay [1] (70 h lysate from medium-treated PBMC), 73.4%. Moreover, the “accumulation of Bik in Namalwa cells” value in the assay on Bik is “accumulates”.
